According to ChEMBL document CHEMBL1122462, “Potential antiatherosclerotic agents. 4. [(Functionalized-alkyl)amino]benzoic acid analogues of cetaben” (1983):

What was measured:
Rattus norvegicus [1] = experiment: In vivo Sterol lowering activity at dose as 0.01% of the diet; assay type: functional
Rattus norvegicus [2] = experiment: In vivo Triglyceride lowering activity at dose as 0.01 % of the diet; assay type: functional
Rattus norvegicus [3] = experiment: In vivo Triglyceride lowering activity at dose as 0.03 % of the diet; assay type: functional
Rattus norvegicus [4] = experiment: In vivo sterol lowering activity at dose of 0.10 % of the diet; assay type: functional
[5] = target: T1, Sterol O-acyltransferase 1 (Rattus norvegicus) (UniProt O70536); experiment: In vitro inhibitory activity against acyl coenzyme A:cholesterol acyltransferase; parameters: concentration or dose not given beside the values; details: concentration not given here
T1 sequence (whole entry): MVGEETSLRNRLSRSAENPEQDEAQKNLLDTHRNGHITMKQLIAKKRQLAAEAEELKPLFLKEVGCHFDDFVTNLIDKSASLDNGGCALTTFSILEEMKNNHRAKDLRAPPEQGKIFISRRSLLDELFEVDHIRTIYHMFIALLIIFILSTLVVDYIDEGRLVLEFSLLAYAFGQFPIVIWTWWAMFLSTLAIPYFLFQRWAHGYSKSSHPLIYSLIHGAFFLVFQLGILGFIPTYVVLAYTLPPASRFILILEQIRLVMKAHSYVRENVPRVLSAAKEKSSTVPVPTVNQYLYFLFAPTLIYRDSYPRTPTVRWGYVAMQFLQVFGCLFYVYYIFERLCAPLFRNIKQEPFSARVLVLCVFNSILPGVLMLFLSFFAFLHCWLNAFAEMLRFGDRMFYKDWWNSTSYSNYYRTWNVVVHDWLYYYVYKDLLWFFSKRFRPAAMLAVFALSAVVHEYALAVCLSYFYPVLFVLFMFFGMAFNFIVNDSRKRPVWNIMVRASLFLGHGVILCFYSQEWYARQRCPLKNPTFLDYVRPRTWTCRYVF

Rattus norvegicus [6] = experiment: In vivo sterol lowering activity, dosed as 0.03 % of the diet; assay type: functional
Rattus norvegicus [7] = experiment: In vivo Triglyceride lowering activity at a dose of 0.10 % of the diet; assay type: functional

inhibition [5] | Structure (SMILES) | serum sterol level, percent of control (Rattus norvegicus [1]) | serum triglyceride level (% of control) (Rattus norvegicus [2]) | triglyceride lowering activity (Rattus norvegicus [3]) | serum sterol level, % of control (Rattus norvegicus [4]) | serum sterol level, percent of control (Rattus norvegicus [6]) | serum triglyceride level (% of control) (Rattus norvegicus [7])
10% | CCOC(=O)c1ccc(NCCCCCCCCCCCCCCCCBr)cc1 | 99% | 100% | 84% | 93% | 98% | 100%
< 61% | CCOC(=O)c1ccc(NCCCCCCCCCCCBr)cc1 | 108% | 83% | 83% | 101% | 94% | 74%
4% | CCOC(=O)c1ccc(NCCCCCCCCCCCCCCCC(=O)O)cc1 | 100% | 99% | 133% | 106% | 106% | 147%
< 51% | CCCCCCCCCCC(C)Nc1ccc(C(=O)O)cc1 (centres undefined) | 94% | <42% | <49% | 92% | <90% | <58%
< 63% | CC(C)CCCCCCCCCCCCCNc1ccc(C(=O)O)cc1 | <89% | 77% | <68% | <64% | <76% | <29%
< 51% | CC(C)CCCCCCCCCCCCCCNc1ccc(C(=O)O)cc1 | <79% | 76% | <50% | <44% | <67% | <29%
17% | CCOC(=O)c1ccc(NCCCCCCCCCCC[Si](C)(C)C)cc1 | 85% | 113% | 111% | <57% | 87% | <78%
< 32% | CCOC(=O)c1ccc(NC(=O)CCCCCCCCCCCCCCCBr)cc1 | 96% | 84% | 94% | <86% | 93% | 79%
< 59% | CCOC(=O)c1ccc(NCCC[Si](C)(C)C)cc1 | 99% | <60% | <63% | <77% | 86% | <54%
22% | O=C(O)c1ccc(NCCCCCCCCCCC(F)(F)F)cc1 | 92% | <57% | <57% | <69% | <80% | <56%
< 19% | CCCCCCCCCCC(=O)CCCCCNc1ccc(C(=O)OCC)cc1 | 109% | 103% | 86% | 107% | 104% | 81%
15% | CCCCCCCCCCCCCCCCN(CC(=O)O)c1ccc(C(=O)O)cc1 | 105% | 105% | 100% | 93% | 109% | 99%
7% | CCOC(=O)c1ccc(NCC(F)(F)C(F)(F)C(F)(F)C(F)(F)C(F)(F)C(F)(F)C(F)(F)F)cc1 | <81% | <47% | <43% | <44% | <65% | <35%
< 56% | O=C(O)c1ccc(NCCCCCCCCCCCC2CCCCC2)cc1 | 95% | 73% | <51% | 83% | 91% | <48%
< 18% | CCCCCCCCCCCCCCC(C)Nc1ccc(C(=O)OCC)cc1 (centres undefined) | 107% | 81% | <55% | 93% | 100% | <55%
< 33% | O=C(CCCCCCCCCCOc1ccc(C(=O)O)cc1)Nc1ccc(C(=O)O)cc1 | 100% | 116% | 106% | 100% | 93% | 93%
< 26% | O=C(O)c1ccc(NCCCCCCCCCCCS)cc1 | 92% | <65% | <61% | <84% | 89% | <50%
7% | CCOC(=O)c1ccc(NCCCCCCCCCCCCC(C)(C)C)cc1 | <89% | 99% | 83% | <83% | <84% | 81%
< 36% | CCSCCCCCCCCCCCCCCCCNc1ccc(C(=O)O)cc1 | 91% | 62% | <58% | 88% | 91% | <59%
< 33% | CCCCCC(=O)CCCCCCCCCCNc1ccc(C(=O)O)cc1 | 93% | <59% | <57% | <81% | 89% | <42%
< 50% | CCOC(=O)c1ccc(NCCCCCCCCCCCCCC[Si](C)(C)C)cc1 | 84% | <77% | <66% | <53% | <66% | <62%
16% | CCCCCCCCCCCCCCCC(=O)Nc1ccc(C(=O)O)cc1 | 111% | 103% | 94% | 112% | 118% | 105%
0% | CCCCCCCCCCC(N)CCCCCNc1ccc(C(=O)OCC)cc1 (centres undefined) | 97% | 68% | 70% | 84% | 99% | <45%
< 51% | CCCCCCCCCCCCCCC(C)Nc1ccc(C(=O)O)cc1 (centres undefined) | 114% | 79% | 68% | <79% | 95% | <49%
9% | CCOC(=O)c1ccc(NCCCCCCCCCCCCCC(C)C)cc1 | 92% | 84% | 84% | <80% | <89% | <61%
< 36% | O=C(O)c1ccc(NCCCCCCCCCCCOc2ccc(C(=O)O)cc2)cc1 | 103% | 90% | 79% | 103% | 91% | 91%
0% | CCOC(=O)c1ccc(NCCCCCCCCCCCCCCC(C)C)cc1 | 87% | <66% | <54% | <80% | <85% | <58%
